Results on one substance are retold here after article PMC4120117 (Bioorganic & medicinal chemistry letters, 2014).

The test relates to three MycP1 variants. It is filed as biochemical, M. tuberculosis, M. thermoresistible, M. smegmatis.

As for HAlaValLysAlaAlaB(OH)2 [Compound 1], the “inhibition (in words)” value is “poorer inhibition than compound 2”.
